{"source": "patent US20050215635A1", "about": "“Diarylheptanoid compounds and uses thereof” (priority 2004, published 2005)", "key": {"[1]": {"system": "Mouse macrophage cell line RAW 264.7", "experiment": "MTT assay, RAW 264.7 cell viability", "assay_type": "cell-based", "details": "HMP 6.25 μM-25 μM, 48 hrs", "procedure": "MTT is a pale yellow substrate that is reduced by living cells to yield a dark blue formazan product. […] Mouse macrophage cell line RAW 264.7 were cultured in 96 well flat bottom plate at concentration of 0.25 million/ml and after 12 hrs of preconditioning, various concentrations of diarylheptanoid (HMP) was added and further cultured for 48 hrs. Thereafter, culture medium was aspirated and 100 μl of MTT dye (1 mg/ml in PBS) was added and further incubated for 4 hrs at 37° C. The formazan crystals made due to dye reduction by viable cells were dissolved using acidified isopropanol (0.1 N HCl). Index of cell viability was calculated by measuring the optical density of color produced by MTT dye reduction at 570 nm."}, "[2]": {"system": "LPS induced NO production from mouse macrophage cells (RAW 264.7)", "experiment": "Nitric oxide measurement (nitrite, Griess reagent) in LPS-treated RAW 264.7 cells", "assay_type": "cell-based", "details": "RAW 264.7, 24 hrs", "procedure": "The mouse macrophage cells (RAW 264.7) were cultured in DMEM supplemented with 15% fetal bovine serum (FBS) and antibiotic and antimycotic mixture. The cell suspension of 50,000 cells/well was cultured in flat bottom microtitre plate in quadruplicate for 12 hrs. Thereafter, 100 μl of media was replaced with fresh medium containing either LPS (0.5 μg/ml) alone or LPS with various concentrations of HMP and further cultured for 24 hrs. The culture supernatant was collected at the end of culture for nitrite assay, which was used as a measure of NO production. Culture supernatant (100 μl) was mixed with equal volume of Griess reagent (SIGMA, MO, USA) and the absorbance was measured at 570 nm. The concentration of nitrite (μM) was calculated from standard curve drawn with known concentration of sodium nitrite dissolved in DMEM. The results are presented as mean ±SD of 4 replicates of one representative experiment and this experiment was repeated 5 times. For the NO assay, RAW 264.7 cells were treated with LPS (0.5 μg/ml) and/or various concentrations of HMP for 24 hrs and amount of nitrite in supernatant from each treatment group was measured using Griess reagent. Each data point represents mean+standard deviation (SD) of 5 replicates of one representative experiment of total 6 experiments."}, "[3]": {"system": "TNF-α production from human PBMCs", "experiment": "TNF-α ELISA in supernatants of LPS-treated human PBMCs", "assay_type": "cell-based", "details": "18 hrs", "procedure": "The PBMCs were separated from peripheral blood of normal healthy human volunteers. […] Supernatant was harvested after 18 hrs and stored at −70° C. until tested. The quantity of IL-1β and TNF-α present in supernatants was estimated by ELISA (R&D systems, MN, USA) following manufacturer's instruction. A standard curve was obtained by plotting known concentrations of recombinant human IL-1β and TNF-α vs absorbance at 450 nm.\nEach data point represents mean+standard deviation (SD) of 3 replicates."}, "iNOS protein expression": {"system": "iNOS protein expression", "experiment": "Western blotting of iNOS protein expression in RAW 264.7 cells", "assay_type": "cell-based, mouse", "details": "HMP 12.5 and 25 μM + LPS (0.5 μg/ml), RAW 264.7, 18 hrs", "procedure": "FIG. 3. Inhibition of LPS induced iNOS and COX-2 protein expression by HMP. RAW 264.7 cells were treated with various concentrations of HMP and/or LPS (0.5 μg/ml) for 18 h. Total-cell lysate (40 μg) was resolved in 8-10% SDS-PAGE then transferred to PVDF membrane and detected with specific antibodies as described in Section 6. This experiment was repeated 4 times with similar observations. Lane-1, Control (without any treatment); 2, LPS (0.5 μg/ml); 3, LPS and HMP 25 μM; 4, LPS and HMP-12.5 μM.\n(§1) At indicated time points, cells were rapidly washed with ice-cold PBS and solubilized in cold lysis buffer containing 10 mM Tris-base, 5 mM EDTA, 50 mM NaCl, 1% Triton X-100, 5 mM phenylmethylsulfonyl fluoride (PMSF), 2 mM sodium orthovanadate, 10 μg/ml leupeptin, 25 μg/ml aprotinin, 1 mM sodium pyrophosphate, and 20% glycerol. […]\n(§2) Equal amount of protein (40 μg) from each sample was loaded on SDS-polyacrylamide electrophoresis gel (8 and 10% separating gels for iNOS and p42/44^MAPK, respectively) and resolved for 1.5 h at 120 V in buffer containing 95 mM Tris-HCl, 960 mM glycine, and 0.5% SDS. […] Specific bands were detected by enhanced chemiluminescence's detection system (Amersham-Pharmacia biotech, NJ, USA) and the membrane was exposed to X-ray film. […]"}, "[4]": {"system": "p44/42 MAPK phosphorylation", "experiment": "Western blotting of LPS induced phosphorylation of p44/42 MAPK in RAW 264.7 cells", "assay_type": "cell-based, mouse", "details": "HMP 25 μM + LPS (0.5 μg/ml), RAW 264.7, 30 min (not at 60 min)", "procedure": "FIG. 5A and 5B. Effect of HMP on LPS induced MAPKs activation. FIG. 5A, Total protein lysates of RAW 264.7 were prepared after treatment with HMP and/or LPS for indicated times and 40 μg of protein lysates were resolved and probed for phosphorylated (pp44/42 and pp38) and basal p44/42 and p38, using specific monoclonal antibodies as described in material and methods. FIG. 5B, Integrated density of phosphorylated p44/42 (pp44/42) as measured by Scion software. This experiment was repeated 4 times with similar results.\nas §1, §2"}}}
{"compound": "COc1cc(CC/C=C/C(=O)CCc2ccccc2)ccc1O", "note": "[AO-4, 7-(4″-hydroxy-3″-methoxyphenyl)-1-phenyl-hept-4-en-3-one]", "values": [{"measurement": "cytotoxic effect on RAW 264.7 cells (cell viability, MTT)", "setting": "[1]", "result": "almost no cytotoxic effect"}, {"measurement": "Nitrite", "setting": "[2]; HMP 6.25 μM + LPS (0.5 μg/ml)", "result": "14.54 ± 2.5", "unit": "µM"}, {"measurement": "Nitrite", "setting": "[2]; HMP 6.25 μM alone", "result": "3.66 ± 1.08", "unit": "µM"}, {"measurement": "Nitrite", "setting": "[2]; HMP 12.5 μM + LPS (0.5 μg/ml)", "result": "13.75 ± 2.65", "unit": "µM"}, {"measurement": "Nitrite", "setting": "[2]; HMP 12.5 μM alone", "result": "3.88 ± 1.14", "unit": "µM"}, {"measurement": "Nitrite", "setting": "[2]; HMP 25 μM + LPS (0.5 μg/ml)", "result": "9.95 ± 1.41", "unit": "µM"}, {"measurement": "Nitrite", "setting": "[2]; HMP 25 μM alone", "result": "3.86 ± 0.97", "unit": "µM"}, {"measurement": "LPS induced production of nitric oxide (in words)", "setting": "[2]; HMP 6.25-25 μM + LPS (0.5 μg/ml)", "result": "significantly inhibited by HMP in a dose dependent manner"}, {"measurement": "NO production, HMP alone (in words)", "setting": "[2]; HMP alone", "result": "no effect on NO production"}, {"measurement": "TNF-α", "setting": "[3]; HMP 6.25 μM + LPS (10 ng/ml)", "result": "342.24 ± 11.50", "unit": "pg/mL"}, {"measurement": "TNF-α", "setting": "[3]; HMP 6.25 μM alone, detection limit 15.62 pg/ml", "result": "<15.62", "unit": "pg/mL"}, {"measurement": "TNF-α", "setting": "[3]; HMP 12.5 μM + LPS (10 ng/ml)", "result": "298.49 ± 5.47", "unit": "pg/mL"}, {"measurement": "TNF-α", "setting": "[3]; HMP 12.5 μM alone, detection limit 15.62 pg/ml", "result": "<15.62", "unit": "pg/mL"}, {"measurement": "TNF-α", "setting": "[3]; HMP 25 μM + LPS (10 ng/ml)", "result": "165.38 ± 8.48", "unit": "pg/mL"}, {"measurement": "TNF-α", "setting": "[3]; HMP 25 μM alone, detection limit 15.62 pg/ml", "result": "<15.62", "unit": "pg/mL"}, {"measurement": "inhibition of LPS induced TNF-α (in words)", "setting": "[3]; HMP 6.25-25 μM + LPS", "result": "only at 25 μM concentration"}, {"measurement": "LPS induced iNOS protein expression (Western blot, in words)", "setting": "iNOS protein expression", "result": "markedly inhibited"}, {"measurement": "LPS-induced phosphorylation of p44/42 MAPK (in words)", "setting": "[4]", "result": "markedly inhibited"}]}
